We go through 5 compounds from patent US12391737B2, “Soluble NPY2 receptor agonists” (Boehringer Ingelheim International GmbH, priority 2020, dated 2025).

Data set [1] concerns the target T1, Human Neuropeptide Y2 Receptor (Homo sapiens, UniProt P49146).
T1 construct: purchased CHEMICON HTS066M
T1 sequence (P49146 1-381): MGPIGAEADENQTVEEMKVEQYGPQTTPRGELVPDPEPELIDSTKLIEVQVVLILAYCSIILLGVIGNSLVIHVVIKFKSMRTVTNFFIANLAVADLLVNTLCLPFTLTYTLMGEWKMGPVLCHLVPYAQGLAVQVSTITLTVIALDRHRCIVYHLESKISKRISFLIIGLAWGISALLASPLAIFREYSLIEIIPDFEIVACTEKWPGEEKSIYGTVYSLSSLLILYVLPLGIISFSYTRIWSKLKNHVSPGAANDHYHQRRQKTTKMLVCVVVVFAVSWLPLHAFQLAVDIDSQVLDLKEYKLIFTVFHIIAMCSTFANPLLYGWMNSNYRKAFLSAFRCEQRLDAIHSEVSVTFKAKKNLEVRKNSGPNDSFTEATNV
In words: Radioligand binding competition assay (RLB). The following applies: Table 3, 125I-PYY(1-36) competition; read-out: Ki. The method, then:
The filtration RLB assay was carried out in 96-well plates in a final volume of 100 μl per well. Freeze-dried test peptides were dissolved in 100% dimethyl sulfoxide (DMSO) to stock solutions of 1 mM and serial dilutions were performed in assay buffer (50 mM HEPES, 5 mM MgCl2, 1 mM CaCl2, pH 7.4) containing 0.2% ovalbumin. […] Next, 80 μL membranes (HTS066M, ChemiSCREEN™ Human Neuropeptide Y2 Receptor Membrane Preparation, CHEMICON) were added to each well to give a final protein concentration of 0.5 μg/well. The plates were sealed and incubated at room temperature for 2 hours in a plate shaker set at 400 rpm. The incubation was stopped by vacuum filtration onto 0.5% polyethylene amine (PE) presoaked GF/C filters using a 96-well FilterMate™ harvester (Perkin Elmer) followed by four washes with 300 μl/well ice-cold wash buffer (50 mM HEPES, 500 mM NaCl, pH7.4). Filter plates were then dried for 60 min at room temperature and the bottom of the plates was sealed with backing tape UniFilter-96. Finally, 50 μl/well scintillation counter cocktail (Microscint20, Packard) was added and the radioactivity was counted in the Packard TopCount NXT scintillation counter. IC50 values (the half maximal inhibitory concentration of the agonist) were calculated by nonlinear regression analysis of sigmoidal dose-response curves.

A short description of the next data set: Solubility determination. The protocol:
Peptides (as TFA salts) were weighed out in a filter unit (Mini-UniPrep Syringeless Filter 0.45 μm, Whatman), and 0.1 M sodium diphosphate buffer at pH 6.4 or 7.0 was added to achieve 10 mg/ml final concentration. The peptide was dissolved by shaking the filter unit horizontally at 600 rpm for 2 hours at room temperature. The sample was filtered, to remove any insoluble particles and diluted to 1 mg/ml in 50% acetonitrile. The control was prepared by weighing out the corresponding peptide and dissolving it in 50% acetonitrile to final concentration of 1 mg/ml. Both the control and sample were analysed with reversed phase chromatography. The area under the peak of the sample was compared to the control and the solubility was calculated based on that ratio.
The pH was measured and recorded for each sample.
System: UltiMate 3000 UPLC, ThermoFisher
Mobile phase A: 5% acetonitrile, 95% water, 0.03% trifluoracetic acid.
Mobile phase B: 95% acetonitrile, 5% water, 0.03% trifluoracetic acid.
Gradient: 0-100% mobile phase B (2 mins.)
Column temperature: 50° C.

Bounds are passed on as bounds.

As to `CC(C)CC(=O)N[C@@H](C)C(=O)N1CCC[C@H]1C(=O)N[C@@H](CCC(=O)O)C(=O)N[C@@H](CCCCNC(=O)CCCCCNC(=O)CC[C@H](NC(=O)CCCCCCCCCCCCCCCCC(=O)O)C(=O)O)C(=O)N1CCC[C@H]1C(=O)N[C@@H](CCC(=O)O)C(=O)N[C@@H](CCC(=O)O)C(=O)N[C@@H](CC(=O)O)C(=O)N[C@@H](C)C(=O)N[C@@H](CO)C(=O)N1CCC[C@H]1C(=O)N[C@@H](CCC(=O)O)C(=O)N[C@@H](CCC(=O)O)C(=O)N[C@@H](CC(C)C)C(=O)N[C@@H](CCC(N)=O)C(=O)N[C@@H](CCCNC(=N)N)C(=O)N[C@@H](Cc1ccc(O)cc1)C(=O)N[C@@H](Cc1ccc(O)cc1)C(=O)N[C@H](C(=O)N[C@@H](CO)C(=O)N[C@@H](CC(C)C)C(=O)N[C@@H](CCCNC(=N)N)C(=O)N[C@@H](Cc1c[nH]cn1)C(=O)N[C@@H](Cc1ccc(O)cc1)C(=O)N[C@@H](Cc1ccc(O)cc1)C(=O)N[C@@H](CCC(N)=O)C(=O)N[C@@H](Cc1c[nH]c2ccccc12)C(=O)N[C@@H](CC(C)C)C(=O)N[C@H](C(=O)N[C@@H](CCCNC(=N)N)C(=O)N[C@@H](CCC(N)=O)C(=O)N[C@@H](CCCNC(=N)N)C(=O)N[C@@H](Cc1ccc(O)cc1)C(N)=O)[C@@H](C)O)C(C)C` [Compound 60, N{alpha-4}-(3-methylbutanoyl)-N{epsilon-7}-(6-[(4S)-4-carboxy-4-(17-carboxyheptadecanamido)butanamido]hexanoyl)-[4A,7K,9E,18Q,22V,28Y,29Q,30W,31L]-hPYY(4-36)], the Ki (commonly a dissociation constant, usually derived from enzyme kinetics or from competition with a known ligand) in data set [1] turned out to be 6.04 nM. The “Sol6” value in “Solubility determination” (pH 6) was over 10.0 mg/mL. Besides, in “Solubility determination” (pH 7), the “Sol7” value was found to be 10.0 mg/mL.
Turning to `CC(C)CC(=O)N[C@@H](C)C(=O)N1CCC[C@H]1C(=O)N[C@@H](CCC(=O)O)C(=O)N[C@@H](CCCCNC(=O)CCCCCNC(=O)CC[C@H](NC(=O)CCCCCCCCCCCCCCCCC(=O)O)C(=O)O)C(=O)N1CCC[C@H]1C(=O)N[C@@H](CCC(=O)O)C(=O)N[C@@H](CCC(=O)O)C(=O)N[C@@H](CC(=O)O)C(=O)N[C@@H](C)C(=O)N[C@H](C(=O)N1CCC[C@H]1C(=O)N[C@@H](CCC(=O)O)C(=O)N[C@@H](CCC(=O)O)C(=O)N[C@@H](CC(C)C)C(=O)N[C@@H](CCC(N)=O)C(=O)N1CCC[C@H]1C(=O)N[C@@H](Cc1ccc(O)cc1)C(=O)N[C@@H](Cc1ccc(O)cc1)C(=O)N[C@H](C(=O)N[C@@H](CO)C(=O)N[C@@H](CC(C)C)C(=O)N[C@@H](CCCNC(=N)N)C(=O)N[C@@H](Cc1c[nH]cn1)C(=O)N[C@@H](Cc1ccc(O)cc1)C(=O)N[C@@H](Cc1ccc(O)cc1)C(=O)N[C@@H](CC(N)=O)C(=O)N[C@@H](Cc1c[nH]c2ccccc12)C(=O)N[C@@H](CC(C)C)C(=O)N[C@H](C(=O)N[C@@H](CCCNC(=N)N)C(=O)N[C@@H](CCC(N)=O)C(=O)N[C@@H](CCCNC(=N)N)C(=O)N[C@@H](Cc1ccc(O)cc1)C(N)=O)[C@@H](C)O)C(C)C)[C@@H](C)O` [Compound 31, N{alpha-4}-(3-methylbutanoyl)-N{epsilon-7}-(6-[(4S)-4-carboxy-4-(17-carboxyheptadecanamido)butanamido]hexanoyl)[4A,7K,9E,13T,18Q,19P,22V,28Y,30W,31L]-hPYY(4-36)], in data set [1], the Ki turned out to be 34.7 nM. The “Sol6” value in “Solubility determination” (pH 6) is over 10.0 mg/mL. Moreover, the “Sol7” value in the data set “Solubility determination” (pH 7) turned out to be 10.0 mg/mL.
For `CC(C)CC(=O)N[C@@H](C)C(=O)N1CCC[C@H]1C(=O)N[C@@H](CCC(=O)O)C(=O)N[C@@H](CCCCNC(=O)CCCCCNC(=O)CC[C@H](NC(=O)CCCCCCCCCCCCCCCCC(=O)O)C(=O)O)C(=O)N1CCC[C@H]1C(=O)N[C@@H](CCC(=O)O)C(=O)N[C@@H](CCC(=O)O)C(=O)N[C@@H](CC(=O)O)C(=O)N[C@@H](C)C(=O)N[C@H](C(=O)N1CCC[C@H]1C(=O)N[C@@H](CCC(=O)O)C(=O)N[C@@H](CCC(=O)O)C(=O)N[C@@H](CC(C)C)C(=O)N[C@@H](CCC(N)=O)C(=O)N[C@@H](CCCNC(=N)N)C(=O)N[C@@H](Cc1ccc(O)cc1)C(=O)N[C@@H](Cc1ccc(O)cc1)C(=O)N[C@H](C(=O)N[C@@H](CO)C(=O)N[C@@H](CC(C)C)C(=O)N[C@@H](CCCNC(=N)N)C(=O)N[C@@H](Cc1c[nH]cn1)C(=O)N[C@@H](Cc1ccc(O)cc1)C(=O)N[C@@H](Cc1ccc(O)cc1)C(=O)N[C@@H](CC(N)=O)C(=O)N[C@@H](Cc1c[nH]c2ccccc12)C(=O)N[C@@H](CC(C)C)C(=O)N[C@H](C(=O)N[C@@H](CCCCN)C(=O)N[C@@H](CCC(N)=O)C(=O)N[C@@H](CCCNC(=N)N)C(=O)N[C@@H](Cc1ccc(O)cc1)C(N)=O)[C@@H](C)O)C(C)C)[C@@H](C)O` [Compound 180, N{alpha-4}-(3-methylbutanoyl)-N{epsilon-7}-(6-[(4S)-4-carboxy-4-(17-carboxyheptadecanamido)butanamido]hexanoyl)-[4A,7K,9E,13T,18Q,22V,28Y,30W,31L,33K]-hPYY(4-36)], the Ki in data set [1] stood at 15.1 nM. Further, in the data set “Solubility determination” (solubility in the pH 6 condition, measured pH printed in the next column (6.0-6.3)), the “Sol6” value came to 9.9 mg/mL. In addition, in “Solubility determination” (solubility in the pH 7 condition, measured pH printed in the next column (6.6-6.9)), the “Sol7” value worked out at 10.0 mg/mL.
With `CC(C)CC(=O)N[C@@H](C)C(=O)N1CCC[C@H]1C(=O)N[C@@H](CCC(=O)O)C(=O)N[C@@H](CCCCNC(=O)CCCCCNC(=O)CC[C@H](NC(=O)CCCCCCCCCCCCCCCCC(=O)O)C(=O)O)C(=O)N1CCC[C@H]1C(=O)N[C@@H](CCC(=O)O)C(=O)N[C@@H](CCC(=O)O)C(=O)N[C@@H](CC(=O)O)C(=O)N[C@@H](C)C(=O)N[C@H](C(=O)N1CCC[C@H]1C(=O)N[C@@H](CCC(=O)O)C(=O)N[C@@H](CCC(=O)O)C(=O)N[C@@H](CCC(N)=O)C(=O)N[C@@H](CCC(N)=O)C(=O)N[C@@H](CCCNC(=N)N)C(=O)N[C@@H](Cc1ccc(O)cc1)C(=O)N[C@@H](Cc1ccc(O)cc1)C(=O)N[C@H](C(=O)N[C@@H](CO)C(=O)N[C@@H](CC(C)C)C(=O)N[C@@H](CCCNC(=N)N)C(=O)N[C@@H](Cc1c[nH]cn1)C(=O)N[C@@H](Cc1ccc(O)cc1)C(=O)N[C@@H](Cc1ccc(O)cc1)C(=O)N[C@@H](CC(N)=O)C(=O)N[C@@H](Cc1c[nH]c2ccccc12)C(=O)N[C@@H](CC(C)C)C(=O)N[C@H](C(=O)N[C@@H](CCCNC(=N)N)C(=O)N[C@@H](CCC(N)=O)C(=O)N[C@@H](CCCNC(=N)N)C(=O)N[C@@H](Cc1ccc(O)cc1)C(N)=O)[C@@H](C)O)C(C)C)[C@@H](C)O` [Compound 134, N{alpha-4}-(3-methylbutanoyl)-N{epsilon-7}-(6-[(4S)-4-carboxy-4-(17-carboxyheptadecanamido)butanamido]hexanoyl)-[4A,7K,9E,13T,17Q,18Q,22V,28Y,30W,31L]-hPYY(4-36)], the inhibition constant Ki in data set [1] amounted to 2.8 nM. For the same compound, the “Sol6” value in the data set “Solubility determination” (pH 6) was determined as 10.0 mg/mL. In addition, the “Sol7” value in “Solubility determination” (pH 7) amounted to 10.0 mg/mL.
Turning to `CC[C@H](C)[C@H](NC(=O)[C@H](Cc1ccc(O)cc1)NC(=O)[C@H](Cc1ccc(O)cc1)NC(=O)[C@H](CCCNC(=N)N)NC(=O)[C@H](CCC(N)=O)NC(=O)[C@H](CC(C)C)NC(=O)[C@H](CCC(=O)O)NC(=O)[C@H](CCC(=O)O)NC(=O)[C@@H]1CCCN1C(=O)[C@H](CCC(=O)O)NC(=O)[C@H](C)NC(=O)[C@H](CC(=O)O)NC(=O)[C@H](C)NC(=O)[C@H](CCC(=O)O)NC(=O)[C@@H]1CCCN1C(=O)[C@H](CCCCNC(=O)CCCCCNC(=O)CC[C@H](NC(=O)CCCCCCCCCCCCCCCCC(=O)O)C(=O)O)NC(=O)[C@H](CCC(=O)O)NC(=O)[C@@H]1CCCN1C(=O)[C@H](C)NC(=O)CC(C)C)C(=O)N[C@@H](C)C(=O)N[C@@H](CC(C)C)C(=O)N[C@@H](CCCNC(=N)N)C(=O)N[C@@H](Cc1c[nH]cn1)C(=O)N[C@@H](Cc1ccc(O)cc1)C(=O)N[C@@H](Cc1ccc(O)cc1)C(=O)N[C@@H](CC(N)=O)C(=O)N[C@@H](Cc1c[nH]c2ccccc12)C(=O)N[C@@H](CC(C)C)C(=O)N[C@H](C(=O)N[C@@H](CCCNC(=N)N)C(=O)N[C@@H](CCC(N)=O)C(=O)N[C@@H](CCCNC(=N)N)C(=O)N[C@@H](Cc1ccc(O)cc1)C(N)=O)[C@@H](C)O` [Compound 1, N{alpha-4}-(3-methylbutanoyl)-N{epsilon-7}-(6-[(4S)-4-carboxy-4-(17-carboxyheptadecanamido)butanamido]hexanoyl)[4A,7K,9E,10A,13E,18Q,22I,23A,28Y,30W,31L]-hPYY(4-36)], in data set [1], the Ki was 2.05 nM. Also, the “Sol6” value in “Solubility determination” (pH 6) worked out at 10.0 mg/mL. In addition, the “Sol7” value in “Solubility determination” (pH 7) stood at 7.6 mg/mL.
